Assays:
[1] = tested on: Human recombinant GST-PI3K; test: PI3K induced-lipid phosphorylation, neomycin-SPA scintillation proximity assay; type: biochemical; settings: Human recombinant GST-PI3K, SPA
[2] = tested on: IgM-induced Akt phosphorylation in B cell; test: IgM-induced Akt phosphorylation in B cell (PBMC, flow cytometry); type: cell-based; settings: human PBMC, CD19+ IgM+ B cells, read-out: IC50 μM, inhibition of IgM-induced Akt phosphorylation
Description: Human PBMC were prepared from a Buffy coat (Geneve Hospital) after a Ficoll gradient (Ficoll-Paque™ Plus PHARMACIA ref: 17-1440-03).
Cell concentration was adjusted to 10^6 cells per mL in RPMI (GIBCO Ref: 72400-21) without serum. Before stimulation, 90 μl of PBMC suspension was incubated with 10 μl of diluted compound in a 96 well round bottom plate for 20 minutes at 37° C.
For B cell activation, 30 μl of Fab′2 Goat anti IgM (Jackson Immuno-research) at10 μg/mL was added to each well. After 5 minutes, cell activation was stopped with 4% paraformaldehyde (10 minutes at room temperature).
Fixed PBMC were then treated for 20 minutes with 0.15% Triton, washed twice with PBS and permeabilized with 50% methanol for 15 minutes.
PBMC were washed twice in PBS, resuspended in: PBS-4% FCS and incubated with anti P-Akt ( 1/100 dilution) for one h at room temperature.
After one wash, PBMC were further stained for 30 minutes with a mixture of anti-CD19-PE (BD Biosciences), anti-IgM-FITC (BD Biosciences) and goat anti rabbit IgG-Alexa 647 (Molecular probe).
After washing, PBMC (Peripheral Blood Mononuclear Cells) were analysed on a FACSCalibur instrument (BD Biosciences) equipped with a 633 helium-neon laser, or stored at 4° C. for further analysis. 510^3 B cells events were gathered per sample in the CD19 positive region.
For the analysis, a threshold was applied on P-Akt histogram of CD19+ IgM+ lymphocytes cells from the non stimulated samples and the percentage of cells above this threshold was determined for each sample.

[3] = tested on: IgM-induced Akt phosphorylation in B cell in the presence of whole blood; test: IgM-induced Akt phosphorylation in B cell in the presence of whole blood; type: cell-based; settings: Homo sapiens, CD19+ IgM+ cells, read-out: IC50 μM, inhibition of IgM-induced Akt phosphorylation in the presence of whole blood
Description: 100 μl of blood are pre-incubated in falcon tube (352063) for 20 minutes at 37° C.
For B cell activation 100 μl of Fab′2 Goat anti Human IgM (30 ug/mL final) is added to each tube and cells are maintained at 37° C.
After 5 minutes, cell activation is stopped with 130 μl Formaldehyde 10% (4% final) and cells are left 10 minutes at room temperature.
Fixed cells are then treated 30 minutes with Triton 0.1% final (add 1 mL of 0.15% Triton)
After several washes with PBS (red cells lysed progressively during washes, 3-4 washes are necessary), cells are transferred in 96 well plate and permeabilized with 50% ice cold Methanol (resuspend first the cells with 80 μl PBBS and then with 80 μl 100% ice cold Methanol) and put on ice for 15 minutes. Plate can be stored in −20° C. in methanol and surface staining performed another day).
Cells are washed twice with PBS and once with the staining buffer-PBS-4% FCS.
Cells are incubated with anti P-Akt (1/70 dilution) In staining buffer for one h.
After a wash with staining buffer, cells are stained with a mixture of anti CD19-PE (3 ul/well), anti-IGM-FITC (3 ul/well), Goat anti rabbit IgG-Alexa 647 (1/500), goat IgG (1/200) for 30 minutes.
After a wash, cells are resuspended in staining buffer or PBS, kept in fridge or immediately passed on a FACSCalibur instrument (BD Biosciences) equipped with a 633 helium-neon laser (red laser).
P-akt histogram of CD19+IGM+ cells is represented and a threshold is set with the non stimulated sample. The parameter reported for each sample is the % of positive cells above this cursor. A representative example is set out in FIG. 1.

[4] = Ex-vivo IgM-induced Akt phosphorylation in mouse after oral administration; settings: male, C57Bl/6, blood
Description: Compounds are dissolved in 0.5% Carboxymethylcellulose containing 0.25% Tween 20 in water and administered orally to each mouse (6-8 weeks old C57B1/6 males from janvier) in a volume of 10 mL/kg. Half an hour before blood collection, heparin at 100 U/kg is injected intraperitonealy to each mouse. At appropriate Tm (maximum exposure) mice are sacrificed and blood collected by intra-cardiac puncture in heparinised tubes.
Blood is pre-incubated at 37° C. for 20 minutes, then an equal volume of Fab′2 Goat anti-Mouse IgM (μspecific, Jackson ImmunoResearch) at 60 μg/mL is added to each tube. B cell activation is terminated after 3 minutes using formaldehyde 4% final and red blood cells are lysed with another 30 minutes Triton X-100 0.1% treatment. Further to several washes with PBS, cells are transferred in a 96 well plate, permeabilized with 50% ice cold Methanol and put on ice for 15 minutes.
Cells were washed PBS before being incubated for one hour with a Rabbit anti Phospho-Akt antibody (4058 from Cell Signaling) in PBS-4% FCS. […]
Cells were analysed on a FACSCalibur instrument (BD Biosciences) equipped with a 633 helium-neon laser (red laser) and 5.10^3 B cells are collected. A threshold was applied on P-Akt histogram of B220^+ IgM+ lymphocytes from the non stimulated tube and the percentage of cells above this threshold is determined for each sample.

[5] = target: CK2 protein kinase (Homo sapiens (Human), UniProt P68400); settings: Fruman et al., 1998; cited from earlier work
[6] = tested on: Class I PI3-kinases; settings: Fruman et al., 1998; read-out: IC50 against each of the various Class I PI3-kinases; cited from earlier work

CK2 protein kinase, sequence (P68400 whole entry): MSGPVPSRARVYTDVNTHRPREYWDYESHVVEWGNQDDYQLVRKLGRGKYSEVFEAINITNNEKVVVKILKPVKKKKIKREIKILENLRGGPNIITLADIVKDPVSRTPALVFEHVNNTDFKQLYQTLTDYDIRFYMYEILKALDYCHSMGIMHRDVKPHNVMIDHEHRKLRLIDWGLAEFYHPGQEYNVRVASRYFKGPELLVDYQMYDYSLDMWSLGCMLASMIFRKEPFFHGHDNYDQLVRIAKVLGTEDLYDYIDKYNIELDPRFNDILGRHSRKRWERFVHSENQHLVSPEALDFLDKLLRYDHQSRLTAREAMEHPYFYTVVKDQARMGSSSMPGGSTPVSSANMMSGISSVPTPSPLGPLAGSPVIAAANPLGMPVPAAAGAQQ

IC50 [1]	IC50 [2]	Compound	other results
0.051 µM	0.037 µM	COc1ccc(CC2CCN(C(C)=O)CC2)c(Nc2nc3ccccc3nc2NS(=O)(=O)c2cccnc2)c1 [Example 17]	–
0.02 µM	0.017 µM	COc1ccc(CC2CCC(O)CC2)c(Nc2nc3ccccc3nc2NS(=O)(=O)c2cccnc2)c1 (stereo not shown) [Example 23, N-[3-({2-[(4-hydroxycyclohexyl)methyl]-5-methoxyphenyl}amino)quinoxalin-2-yl]pyridine-3-sulfonamide]	–
0.049 µM	0.03 µM	COc1ccc(CN2CCN(C)CC2)c(Nc2nc3ccccc3nc2NS(=O)(=O)c2cccnc2)c1 [Example 81, N-[3-({5-methoxy-2-[(4-methylpiperazin-1-yl)methyl]phenyl}amino)quinoxalin-2-yl]pyridine-3-sulfonamide]	IC50 [3]: 1.9 µM; Tmax [4]: 15 min
–	0.013 µM	COc1ccc(CC2CCOCC2)c(Nc2nc3ccccc3nc2NS(=O)(=O)c2ccc(CN(C)C)cc2)c1 [Example 86, 4-[(dimethylamino)methyl]-N-(3-{[methoxy-2-(tetrahydro-2H-pyran-4-ylmethyl)phenyl]amino}quinoxalin-2-yl)benzenesulfonamide]	–
1.84 µM	–	COc1ccc(CCOC(=O)[C@@H](NC(=O)OCC2c3ccccc3-c3ccccc32)C(C)C)c(Nc2nc3ccccc3nc2NS(=O)(=O)c2cn(C)cn2)c1 [Example 103, 2-{4-Methoxy-2-[(3-{[(1-methyl-1H-imidazol-4-yl)sulfonyl]amino}quinoxalin-2-yl)amino]phenyl}ethyl N-[(9H-fluoren-9-ylmethoxy)carbonyl]-L-valinate]	–
0.1 µM	–	COc1ccc(CCOC(=O)[C@@H](N)C(C)C)c(Nc2nc3ccccc3nc2NS(=O)(=O)c2cn(C)cn2)c1 [Example 104]	–

The remaining lines, values behind:

Compound	IC50 [1]	IC50 [2]	other results
COC(=O)c1ccc(OC)cc1Nc1nc2ccccc2nc1NS(=O)(=O)c1cn(C)cn1 [Example 1, methyl 4-methoxy-2-[(3-{[(1-methyl-1H-imidazol-4-yl)sulfonyl]amino}quinoxalin-2-yl)amino]benzoate]	0.021 µM	0.07 µM	–
COC(=O)c1ccc(OC)cc1Nc1nc2ccccc2nc1NS(=O)(=O)c1cccnc1 [Example 2]	0.088 µM	0.04 µM	–
COc1ccc(CC2CCOCC2)c(Nc2nc3ccccc3nc2NS(=O)(=O)c2cn(C)cn2)c1 [Example 7, N-(3-{[5-methoxy-2-(tetrahydro-2H-pyran-4-ylmethyl)phenyl]amino}quinoxalin-2-yl)-1-methyl-1H-imidazole-4-sulfonamide]	0.049 µM	0.02 µM	–
COc1ccc(CC2CCOCC2)c(Nc2nc3ccccc3nc2NS(C)(=O)=O)c1 [Example 8, N-(3-{[5-methoxy-2-(tetrahydro-2H-pyran-4-ylmethyl)phenyl]amino}quinoxalin-2-yl)methanesulfonamide]	0.13 µM	0.07 µM	–
COc1ccc(CC2CCOCC2)c(Nc2nc3ccccc3nc2NS(=O)(=O)c2cccnc2)c1 [Example 9, N-(3-{[5-methoxy-2-(tetrahydro-2H-pyran-4-ylmethyl)phenyl]amino}quinoxalin-2-yl)pyridine-3-sulfonamide]	0.027 µM	0.01 µM	–
COc1ccc(CC2CCN(C)CC2)c(Nc2nc3ccccc3nc2NS(=O)(=O)c2cn(C)cn2)c1 [Example 11, N-[3-({5-methoxy-2-[(1-methylpiperidin-4-yl)methyl]phenyl}amino)quinoxalin-2-yl]-1-methyl-1H-imidazole-4-sulfonamide]	0.043 µM	0.07 µM	IC50 [3]: 0.3 µM
COc1ccc(CC2CCN(C)CC2)c(Nc2nc3ccccc3nc2NS(C)(=O)=O)c1 [Example 13, N-[3-({5-methoxy-2-[(1-methylpiperidin-4-yl)methyl]phenyl}amino)quinoxalin-2-yl]methanesulfonamide]	0.11 µM	0.07 µM	IC50 [3]: 1 µM
COc1ccc(CC2CCN(C(C)=O)CC2)c(Nc2nc3ccccc3nc2NS(=O)(=O)c2cn(C)cn2)c1 [Example 16, N-[3-({2-[(1-acetylpiperidin-4-yl)methyl]-5-methoxyphenyl}amino)quinoxalin-2-yl]-1-methyl-1H-imidazole-4-sulfonamide]	0.089 µM	0.076 µM	–
O=c1cc(N2CCOCC2)oc2c(-c3ccccc3)cccc12 [LY294002]	–	–	IC50 [5]: 5000 to 10000 µM
COC[C@H]1OC(=O)c2coc3c2[C@@]1(C)C1=C(C3=O)[C@@H]2CCC(=O)[C@@]2(C)C[C@H]1OC(C)=O [Wortmannin]	–	–	IC50 [6]: 0.001 to 0.01 µM
